Results published in patent US20200325177A1, “METHODS OF MAKING STREPTOGRAMIN COMPOSITIONS AND THE USE THEREOF” (THE REGENTS OF THE UNIVERSITY OF CALIFORNIA, priority 2017, published 2020).
Like-named read-outs stand apart in the source and are kept apart here.

Columns and labels:
Type in all cases: cell-based
E. faecium ATCC 35667 = experiment: MIC, Gram-positive bacteria: E. faecium ATCC 35667; settings: Enterococcus faecium, ATCC35667, column 2, read-out: Minimal Inhibitory Concentration (MIC) E. faecium ATCC 35667
E. faecalis = experiment: MIC, Gram-positive bacteria: E. faecalis; settings: Enterococcus faecalis, column 1, read-out: Minimal Inhibitory Concentration (MIC) E. faecalis
S. aureus = experiment: MIC, Gram-positive bacteria: S. aureus (strains not named); settings: Staphylococcus aureus, read-out: Minimal Inhibitory Concentration (MIC) S. aureus
Gram-Negative Organisms = experiment: microbe, parasite or virus in culture
P. aeruginosa ATCC 27853 = experiment: MIC, Gram-negative bacteria: P. aeruginosa ATCC 27853; settings: Pseudomonas aeruginosa, ATCC27853, read-out: Minimal Inhibitory Concentration (MIC) P. aeruginosa ATCC 27853
[1] = test system: S. aureus Linezolid-resistant; cfr; experiment: MIC, Gram-positive bacteria: S. aureus Linezolid-resistant; cfr; settings: Staphylococcus aureus, column 9, read-out: Minimal Inhibitory Concentration (MIC) S. aureus Linezolid-resistant
[2] = test system: S. aureus Vat A streptogramin; experiment: MIC, Gram-positive bacteria: S. aureus Vat A streptogramin; settings: Staphylococcus aureus; Gram-positive; column 5; read-out: Minimal Inhibitory Concentration (MIC) S. aureus Vat A streptogramin
H. influenzae ATCC 49247 = experiment: MIC, Gram-negative bacteria: H. influenzae ATCC 49247; settings: Haemophilus influenzae, ATCC49247, read-out: Minimal Inhibitory Concentration (MIC) H. influenzae ATCC 49247
S. pneumoniae = experiment: MIC, Gram-positive bacteria: S. pneumoniae; settings: Streptococcus pneumoniae, column 10, read-out: Minimal Inhibitory Concentration (MIC) S. pneumoniae
[3] = test system: P. aeruginosa MDR clinical isolate; experiment: MIC, Gram-negative bacteria: P. aeruginosa MDR clinical isolate; settings: Pseudomonas aeruginosa, read-out: Minimal Inhibitory Concentration (MIC) P. aeruginosa MDR clinical isolate
[4] = test system: K. pneumoniae multidrug-resistant; experiment: MIC, Gram-negative bacteria: K. pneumoniae multidrug-resistant; settings: Klebsiella pneumoniae, read-out: Minimal Inhibitory Concentration (MIC) K. pneumoniae multidrug-resistant
E. faecium VRE; vanA = experiment: MIC, Gram-positive bacteria: E. faecium VRE; vanA; settings: Enterococcus faecium, column 3, read-out: Minimal Inhibitory Concentration (MIC) E. faecium VRE
[5] = first unnamed S. aureus column (c4)
[6] = fourth unnamed S. aureus column (c8)
[7] = second unnamed S. aureus column (c6)
[8] = third unnamed S. aureus column (c7)
[9] = Acinetobacter baumannii, ATCC19606, read-out: Minimal Inhibitory Concentration (MIC), A. baumannii ATCC 19606
[10] = Escherichia coli, ATCC25922, read-out: Minimal Inhibitory Concentration (MIC), E. coli ATCC 25922
[11] = Escherichia coli, read-out: Minimal Inhibitory Concentration (MIC), E. coli BAS2006, OMP C, OMP F
[12] = Escherichia coli, read-out: Minimal Inhibitory Concentration (MIC), E. coli olC efflux defective
[13] = Escherichia coli, read-out: Minimal Inhibitory Concentration (MIC), E. coli permeability mutant BAS1314, IMP4213ZAB::TN10
[14] = Klebsiella pneumoniae, ATCC43816, read-out: Minimal Inhibitory Concentration (MIC), K. pneumoniae ATCC 43816
[15] = Escherichia coli, read-out: Minimal Inhibitory Concentration (MIC), E. coli ΔompC768, KanR insert

Measured: MIC

CC1=C\[C@@H](O)CC(=O)Cc2nc(co2)C(=O)N2CCC[C@@H]2C(=O)O[C@H]([C@@H](C)COC(=O)Nc2coc(C)n2)[C@H](C)/C=C/C(=O)NC\C=C\1 [SA0110095]
32 µg/mL: E. faecium ATCC 35667 | Gram-Negative Organisms; [11]
64 µg/mL: S. aureus; [6] | H. influenzae ATCC 49247
> 64 µg/mL: E. faecalis | S. aureus; [5] | S. aureus; [7] | S. aureus; [8] | Gram-Negative Organisms; [9] | Gram-Negative Organisms; [10] | Gram-Negative Organisms; [14] | P. aeruginosa ATCC 27853 | [1] | [2] | [3] | [4] | E. faecium VRE; vanA
8 µg/mL: Gram-Negative Organisms; [12]
16 µg/mL: Gram-Negative Organisms; [13] | S. pneumoniae

CC1=C\[C@@H](O)CC(=O)Cc2nc(co2)C(=O)N2CCC[C@@H]2C(=O)O[C@H]([C@@H](C)COC(=O)Nc2ccccn2)[C@H](C)/C=C/C(=O)NC\C=C\1 [SA0110120]
> 64 µg/mL: E. faecalis | S. aureus; [8] | Gram-Negative Organisms; [9] | Gram-Negative Organisms; [10] | Gram-Negative Organisms; [14] | P. aeruginosa ATCC 27853 | [1] | [2] | [3] | [4]
4 µg/mL: Gram-Negative Organisms; [12]
64 µg/mL: S. aureus; [5] | S. aureus; [7] | E. faecium VRE; vanA
8 µg/mL: Gram-Negative Organisms; [13]
16 µg/mL: S. pneumoniae
32 µg/mL: E. faecium ATCC 35667 | S. aureus; [6] | Gram-Negative Organisms; [11] | H. influenzae ATCC 49247

CC1=C\[C@@H](O)CC(=O)Cc2nc(co2)C(=O)N2CCC[C@@H]2C(=O)O[C@H]([C@H](C)COC(=O)Nc2ccccn2)[C@H](C)/C=C/C(=O)NC\C=C\1 [SA0110222]
64 µg/mL: S. aureus; [6] | Gram-Negative Organisms; [11] | E. faecium VRE; vanA
32 µg/mL: E. faecium ATCC 35667 | S. pneumoniae
> 64 µg/mL: E. faecalis | S. aureus; [5] | S. aureus; [7] | S. aureus; [8] | Gram-Negative Organisms; [9] | Gram-Negative Organisms; [10] | Gram-Negative Organisms; [15] | Gram-Negative Organisms; [14] | P. aeruginosa ATCC 27853 | [1] | [2] | [3] | [4]
16 µg/mL: Gram-Negative Organisms; [13] | H. influenzae ATCC 49247
4 µg/mL: Gram-Negative Organisms; [12]

CC1=C\[C@@H](O)CC(=O)Cc2nc(co2)C(=O)N[C@H](C)C(=O)O[C@H](C(C)C)[C@H](C)/C=C/C(=O)NC\C=C\1 [madumycin I, Madumycin I, reference compound]
0.5 µg/mL: Gram-Negative Organisms; [11]
> 64 µg/mL: Gram-Negative Organisms; [9] | Gram-Negative Organisms; [10] | Gram-Negative Organisms; [14] | P. aeruginosa ATCC 27853 | [3] | [4]
32 µg/mL: E. faecalis
2 µg/mL: E. faecium ATCC 35667 | Gram-Negative Organisms; [12]
0.25 µg/mL: Gram-Negative Organisms; [13]
64 µg/mL: [1] | [2]
4 µg/mL: S. aureus; [6] | S. pneumoniae | E. faecium VRE; vanA
8 µg/mL: S. aureus; [5] | S. aureus; [7] | S. aureus; [8] | H. influenzae ATCC 49247

CC1=C\[C@@H](O)CC(=O)Cc2nc(co2)C(=O)N2CCC[C@@H]2C(=O)O[C@H]([C@H](C)CF)[C@H](C)/C=C/C(=O)NC\C=C\1 [SA0110273]
8 µg/mL: Gram-Negative Organisms; [13] | H. influenzae ATCC 49247
32 µg/mL: S. aureus; [6]
> 64 µg/mL: E. faecalis | Gram-Negative Organisms; [9] | Gram-Negative Organisms; [10] | Gram-Negative Organisms; [15] | Gram-Negative Organisms; [14] | P. aeruginosa ATCC 27853 | [1] | [2] | [3] | [4]
16 µg/mL: E. faecium ATCC 35667 | Gram-Negative Organisms; [11] | S. pneumoniae
4 µg/mL: Gram-Negative Organisms; [12]
64 µg/mL: S. aureus; [5] | S. aureus; [7] | S. aureus; [8] | E. faecium VRE; vanA

CC1=C\[C@@H](O)CC(=O)Cc2nc(co2)C(=O)N2CCC[C@@H]2C(=O)O[C@H]([C@@H](C)COC(=O)Nc2csc(C)n2)[C@H](C)/C=C/C(=O)NC\C=C\1 [SA0110098]
2 µg/mL: Gram-Negative Organisms; [12]
16 µg/mL: E. faecium ATCC 35667 | Gram-Negative Organisms; [11] | S. pneumoniae
64 µg/mL: S. aureus; [5] | S. aureus; [8] | E. faecium VRE; vanA
> 64 µg/mL: E. faecalis | Gram-Negative Organisms; [9] | Gram-Negative Organisms; [10] | Gram-Negative Organisms; [14] | P. aeruginosa ATCC 27853 | [1] | [2] | [3] | [4]
32 µg/mL: S. aureus; [6] | S. aureus; [7] | H. influenzae ATCC 49247
8 µg/mL: Gram-Negative Organisms; [13]
